Measurements taken from PMC6807911, “A structure-based approach towards the identification of novel antichagasic compounds: Trypanosoma cruzi carbonic anhydrase inhibitors” (Journal of Enzyme Inhibition and Medicinal Chemistry, 2019).

Biological target: T1, TcCA (Trypanosoma cruzi carbonic anhydrase) (Trypanosoma cruzi, UniProt Q4CVY4)
T1 construct: gene Tc00.1047053509597.20
T1 sequence (Q4CVY4 39-638): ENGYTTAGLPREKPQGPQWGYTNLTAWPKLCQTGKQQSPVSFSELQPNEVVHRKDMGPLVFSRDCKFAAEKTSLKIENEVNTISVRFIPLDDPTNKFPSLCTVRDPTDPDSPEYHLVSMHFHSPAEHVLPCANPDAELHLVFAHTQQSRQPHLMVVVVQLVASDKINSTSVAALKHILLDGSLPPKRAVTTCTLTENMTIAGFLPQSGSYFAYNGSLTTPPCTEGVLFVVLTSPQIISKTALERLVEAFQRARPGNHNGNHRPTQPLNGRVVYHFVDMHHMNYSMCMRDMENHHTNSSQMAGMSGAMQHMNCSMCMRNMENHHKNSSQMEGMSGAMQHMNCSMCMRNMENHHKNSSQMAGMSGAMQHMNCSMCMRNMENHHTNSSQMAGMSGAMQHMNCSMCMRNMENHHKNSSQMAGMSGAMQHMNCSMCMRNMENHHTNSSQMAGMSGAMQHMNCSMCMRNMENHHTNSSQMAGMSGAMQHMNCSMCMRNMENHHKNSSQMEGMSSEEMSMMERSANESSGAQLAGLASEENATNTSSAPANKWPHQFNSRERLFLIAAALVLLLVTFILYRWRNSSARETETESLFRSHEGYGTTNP
Assay: stopped-flow CO2 hydration assay
Type: biochemical
Conditions: read-out: KITcCA
From the text: stopped-flow CO2 hydration assay on TcCA (Trypanosoma cruzi carbonic anhydrase)

SMILES	Ki
O=S(=O)(O)NC1CCCCC1 [Sodium cyclamate]	0.348 µM
COC(=O)CCNS(=O)(=O)NCCc1ccccc1 [compound 7, 7]	7.25 µM
COC(=O)[C@H](Cc1ccccc1)NS(=O)(=O)NCC(C)C [compound 5, 5]	0.261 µM
CC1=CC(=O)NS(=O)(=O)O1 [Acesulphame]	2.24 µM
